Target: T1, enzyme R39 (soluble D-alanyl-D-alanine carboxypeptidase produced by Actinomadura R39) (Actinomadura sp. R39, UniProt P39045)
T1 construct: added to milk or serum samples
Assay: Enzymatic determination of penicillin G in milk with 0.4 picomole enzyme R39 (Example 2)
Type: biochemical
Conditions: for Coloration: 0.4 picomole enzyme R39, 10 min + 5 min
Procedure: 1.5 picomole of enzyme R39, dissolved in 10 μl of 0.5M Hepes buffer (pH=8.0) containing 0.5M NaCl and 0.25M MgCl2, and 20 μl of an aqueous solution containing 50 mg/ml of D-alanine are added to each sample (control sample+samples containing penicillin G). In the blank sample, enzyme R39 dissolved in Hepes buffer is replaced by 10 μl of 0.5M Hepes buffer (pH=8.0), containing 0.5M NaCl and 0.25M MgCl2 (Hepes=4-hydroxyethyl-1-piperazineethanesulfonic acid). The mixture is incubated at 47° C. for 4 minutes.
Next, 5 μl of an aqueous solution containing 5 mg/ml [(N-benzoyl-D-alanyl)thio]-acetic acid and 10 μl of a phosphate buffer solution (pH=8.0; KH2 PO4 +K2 HPO4) containing 2 mg/ml of 5,5'-dithiobis(2-nitrobenzoic) acid are added and the mixture is incubated at 47° C. for 1 minute.
The process is exactly the same as in Example 1 except that:
0.4 picomole of enzyme R39 (instead of 1.5 picomole) is added to the samples;
the first incubation lasts 10 minutes (instead of 4 minutes) and
the second incubation lasts 5 minutes (instead of 1 minute).

T1 sequence (P39045 50-515): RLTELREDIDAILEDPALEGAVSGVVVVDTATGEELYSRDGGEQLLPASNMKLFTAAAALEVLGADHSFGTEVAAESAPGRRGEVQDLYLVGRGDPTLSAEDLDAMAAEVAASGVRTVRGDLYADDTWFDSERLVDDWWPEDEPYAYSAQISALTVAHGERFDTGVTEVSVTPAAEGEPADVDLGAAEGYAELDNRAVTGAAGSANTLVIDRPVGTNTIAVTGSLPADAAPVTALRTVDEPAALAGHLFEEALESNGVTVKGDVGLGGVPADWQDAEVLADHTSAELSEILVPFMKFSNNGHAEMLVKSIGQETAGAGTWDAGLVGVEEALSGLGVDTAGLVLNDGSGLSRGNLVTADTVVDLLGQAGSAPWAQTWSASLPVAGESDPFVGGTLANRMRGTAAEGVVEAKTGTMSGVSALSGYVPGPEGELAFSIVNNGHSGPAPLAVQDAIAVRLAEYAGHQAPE

CC1(C)S[C@@H]2[C@H](NC(=O)Cc3ccccc3)C(=O)N2[C@H]1C(=O)O [penicillin G, benzyl penicillin (penicillin G)]
penicillin G concentration in milk detected by reference to a color chart (color chart, 15 minutes): 0.002 I.U./ml | Coloration (penicillin G 0.001 I.U./ml in 50 μl milk): intense yellow | Coloration (penicillin G 0.002 I.U./ml in 50 μl milk): medium yellow | Coloration (penicillin G 0.003 I.U./ml in 50 μl milk): pale yellow | Coloration (penicillin G 0.004 I.U./ml in 50 μl milk): white | Coloration (penicillin G 0.005 I.U./ml in 50 μl milk): white | Coloration (penicillin G 0.008 I.U./ml in 50 μl milk): white | Coloration (penicillin G 0.010 I.U./ml in 50 μl milk): white
